From patent US20140235592A1, “SUBSTITUTED 6-METHOXY-4-AMINO-N-PHENYL-2-NAPHTAMIDES AS SPHINGOSINE RECEPTOR MODULATORS” (Allergan, Inc., priority 2013, published 2014)

target: T1, human S1P1 receptor (Homo sapiens, UniProt P21453); assay: GTP γ35S binding assay for S1P1 activity; format: biochemical; conditions: membranes of cells stably expressing the S1P1 receptor, test concentrations 0.08 to 5,000 nM
T1 construct: expressed in transfected cells; membranes used
Experimental: Compounds were tested for S1 P1 activity using the GTP γ^35S binding assay. These compounds may be assessed for their ability to activate or block activation of the human S1 P1 receptor in cells stably expressing the S1 P1 receptor. GTP γ^35S binding was measured in the medium containing (mM) HEPES 25, pH 7.4, MgCl2 10, NaCl 100, dithiothreitol 0.5, digitonin 0.003%, 0.2 nM GTP γ^355, and 5 μg membrane protein in a volume of 150 μl. Test compounds were included in the concentration range from 0.08 to 5,000 nM unless indicated otherwise. Membranes were incubated with 100 μM 5′-adenylylimmidodiphosphate for 30 min, and subsequently with 10 μM GDP for 10 min on ice. Drug solutions and membrane were mixed, and then reactions were initiated by adding GTP γ^35S and continued for 30 min at 25° C. Reaction mixtures were filtered over Whatman GF/B filters under vacuum, and washed three times with 3 mL of ice-cold buffer (HEPES 25, pH7.4, MgCl2 10 and NaCl 100). Filters were dried and mixed with scintillant, and counted for ^35S activity using a β-counter. Agonist-induced GTP γ^355 binding was obtained by subtracting that in the absence of agonist. Binding data were analyzed using a non-linear regression method. In case of antagonist assay, the reaction mixture contained 10 nM S1P in the presence of test antagonist at concentrations ranging from 0.08 to 5000 nM.

T1 sequence (P21453 whole entry): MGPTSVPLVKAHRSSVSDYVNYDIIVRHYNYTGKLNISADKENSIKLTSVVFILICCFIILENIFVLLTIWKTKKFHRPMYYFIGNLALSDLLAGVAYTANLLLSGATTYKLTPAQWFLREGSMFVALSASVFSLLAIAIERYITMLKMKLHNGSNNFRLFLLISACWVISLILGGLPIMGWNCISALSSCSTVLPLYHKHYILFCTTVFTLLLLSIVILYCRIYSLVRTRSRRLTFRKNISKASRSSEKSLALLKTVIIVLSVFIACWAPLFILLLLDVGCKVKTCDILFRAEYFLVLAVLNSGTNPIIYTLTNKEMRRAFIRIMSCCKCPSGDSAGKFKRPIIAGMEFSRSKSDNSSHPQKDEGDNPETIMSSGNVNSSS

Compound | EC50 [nM]
COc1ccc2cc(C(=O)Nc3ccc(CNCCCP(=O)(O)O)cc3)cc(N(C)CC3CC3)c2c1 [Compound 3, [3-({4-[({4-[(cyclopropylmethyl)(methyl)amino]-6-methoxynaphthalen-2-yl}carbonyl)amino]benzyl}amino)propyl]phosphonic acid] | 138
CCN(CC1CC1)c1cc(C(=O)Nc2ccc(CNCCCP(=O)(O)O)cc2)cc2ccc(OC)cc12 [Compound 5, [3-({4-[({4-[(cyclopropylmethyl)(ethyl)amino]-6-methoxynaphthalen-2-yl}carbonyl)amino]benzyl}amino)propyl]phosphonic acid] | 401

Now from value to compound:

EC50 [nM] | Compound
95 | CCN(CC)c1cc(C(=O)Nc2ccc(CNCCCP(=O)(O)O)cc2)cc2ccc(OC)cc12 [Compound 7, (3-{[4-({[4-(diethylamino)-6-methoxynaphthalen-2-yl]carbonyl}amino)benzyl]amino}propyl)phosphonic acid]
160 | CCCN(C)c1cc(C(=O)Nc2ccc(CNCCCP(=O)(O)O)cc2)cc2ccc(OC)cc12 [Compound 8, [3-({4-[({6-methoxy-4-[methyl(propyl)amino]naphthalen-2-yl}carbonyl)amino]benzyl}amino)propyl]phosphonic acid]
494 | COc1ccc2cc(C(=O)Nc3ccc(CNCCCP(=O)(O)O)cc3)cc(N(C)C)c2c1 [Compound 9, (3-{[4-({[4-(dimethylamino)-6-methoxynaphthalen-2-yl]carbonyl}amino)benzyl]amino}propyl)phosphonic acid]
